# ChEMBL document CHEMBL5050844 (2019)
# Tests used:
# [1] = Induction of anti-CD3/CD28 antibodies-stimulated human T cell activation at 4 uM assessed fold increase in IL-2 secretion measured by ELISA assay; assay type: functional, T cell line
# [2] = Induction of anti-CD3/CD28 antibodies-stimulated human T cell activation at 1 uM assessed fold increase in IL-2 secretion measured by ELISA assay; assay type: functional, T cell line
# [3] = Induction of anti-CD3 antibodies-stimulated human T cell activation at 1 uM assessed fold increase in IL-2 secretion measured by ELISA assay; assay type: functional, T cell line; note: reference of the scale not given here
# [4] = Induction of anti-CD3/CD28 antibodies-stimulated human T cell activation at 4 uM assessed fold increase in CD25 expression measured by ELISA assay; assay type: functional, T cell line
# [5] = Induction of anti-CD3/CD28 antibodies-stimulated human CD4+ T cell activation at 10 uM assessed fold increase in CD69 expression measured by flow cytometry analysis; assay type: functional, T cell line
# [6] = Induction of anti-CD3/CD28 antibodies-stimulated human CD4+ T cell activation at 1.11 uM assessed fold increase in CD69 expression measured by flow cytometry analysis; assay type: functional, T cell line
# [7] = Induction of anti-CD3/CD28 antibodies-stimulated human CD4+ T cell activation at 10 uM assessed fold increase in cell proliferation measured by flow cytometry analysis; assay type: functional, T cell line
# [8] = Induction of anti-CD3/CD28 antibodies-stimulated human CD8+ T cell activation at 10 uM assessed fold increase in CD69 expression measured by flow cytometry analysis; assay type: functional, T cell line
# [9] = Induction of anti-CD3/CD28 antibodies-stimulated human CD8+ T cell activation at 1.11 uM assessed fold increase in CD69 expression measured by flow cytometry analysis; assay type: functional, T cell line
# [10] = Induction of anti-CD3/CD28 antibodies-stimulated human CD8+ T cell activation at 1.11 uM assessed fold increase in cell proliferation measured by flow cytometry analysis; assay type: functional, T cell line
# [11] = Induction of anti-CD3 antibodies-stimulated human CD4+ T cell activation at 10 uM assessed fold increase in CD69 expression measured by flow cytometry analysis; assay type: functional, T cell line; note: reference of the scale not given here
# [12] = Induction of anti-CD3 antibodies-stimulated human CD8+ T cell activation at 10 uM assessed fold increase in CD69 expression measured by flow cytometry analysis; assay type: functional, T cell line; note: reference of the scale not given here
# [13] = Induction of anti-CD3 antibodies-stimulated human CD8+ T cell activation at 1.11 uM assessed fold increase in CD69 expression measured by flow cytometry analysis; assay type: functional, T cell line; note: reference of the scale not given here
# [14] = Induction of anti-CD3 antibodies-stimulated human CD8+ T cell activation at 10 uM assessed fold increase in cell proliferation measured by flow cytometry analysis; assay type: functional, T cell line; note: reference of the scale not given here
# [15] = Induction of anti-CD3 antibodies-stimulated human CD8+ T cell activation at 1.11 uM assessed fold increase in cell proliferation measured by flow cytometry analysis; assay type: functional, T cell line; note: reference of the scale not given here
# [16] = Induction of anti-CD3/CD28 antibodies-stimulated human T cell activation at 10 uM assessed fold increase in GM-CSF secretion measured by ELISA assay; assay type: functional, T cell line
# [17] = Induction of anti-CD3/CD28 antibodies-stimulated human T cell activation at 1.11 uM assessed fold increase in GM-CSF secretion measured by ELISA assay; assay type: functional, T cell line
# [18] = Induction of anti-CD3 antibodies-stimulated human T cell activation at 10 uM assessed fold increase in GM-CSF secretion measured by ELISA assay; assay type: functional, T cell line; note: reference of the scale not given here
# [19] = Induction of anti-CD3 antibodies-stimulated human T cell activation at 1.11 uM assessed fold increase in GM-CSF secretion measured by ELISA assay; assay type: functional, T cell line; note: reference of the scale not given here
# [20] = Induction of anti-CD3/CD28 antibodies-stimulated human T cell activation at 1.11 uM assessed fold increase in TNF-alpha secretion measured by ELISA assay; assay type: functional, T cell line
# [21] = Induction of anti-CD3 antibodies-stimulated human T cell activation at 10 uM assessed fold increase in TNF-alpha secretion measured by ELISA assay; assay type: functional, T cell line; note: reference of the scale not given here
# [22] = Induction of anti-CD3 antibodies-stimulated human T cell activation at 1.11 uM assessed fold increase in TNF-alpha secretion measured by ELISA assay; assay type: functional, T cell line; note: reference of the scale not given here
# [23] = Induction of anti-CD3/CD28 antibodies-stimulated human T cell activation at 1.11 uM assessed fold increase in IFN-gamma secretion measured by ELISA assay; assay type: functional, T cell line
# [24] = Induction of anti-CD3 antibodies-stimulated human T cell activation at 1.11 uM assessed fold increase in IFN-gamma secretion measured by ELISA assay; assay type: functional, T cell line; note: reference of the scale not given here
# [25] = Induction of allogenic human T cell activation at 3 uM assessed fold increase in cell proliferation; assay type: functional, T cell line
# [26] = Induction of anti-CD3 antibodies-stimulated human exhausted T cell activation assessed fold increase in IFN-gamma secretion measured by ELISA assay; assay type: functional, T cell line; note: reference of the scale not given here
# [27] = Induction of anti-CD3 antibodies-stimulated human exhausted T cell activation assessed fold increase in IL-2 secretion measured by ELISA assay; assay type: functional, T cell line; note: reference of the scale not given here
# [28] = Induction of anti-CD3 antibodies-stimulated human exhausted T cell activation assessed fold increase in GM-CSF secretion measured by ELISA assay; assay type: functional, T cell line; note: reference of the scale not given here
# [29] = Induction of anti-CD3 antibodies-stimulated human exhausted CD4+ T cell activation assessed fold increase in CTLA4 expression measured by flow cytometry analysis; assay type: functional, T cell line; note: reference of the scale not given here
# [30] = Induction of anti-CD3/CD28 antibodies-stimulated human anergic T cell activation at 10 uM assessed fold increase in IFN-gamma secretion measured by ELISA assay; assay type: functional, T cell line
# [31] = Induction of anti-CD3/CD28 antibodies-stimulated human anergic T cell activation at 0.37 uM assessed fold increase in IFN-gamma secretion measured by ELISA assay; assay type: functional, T cell line
# B cell = experiment: Induction of anti-IgM-stimulated human CD20+ B cell activation at 10 to 1000 uM assessed as increase in CD69 expression measured as mean fluorescence intensity AUC by flow cytometry analysis; assay type: functional, cell-based; details: dose 10-1000 µM
# [32] = Induction of activation of human CD56+ CD3- NK cells co-cultured with human K562 cells in 1:1 ratio and assessed as increase in IFN-gamma secretion at 10 uM measured by ELISA assay; assay type: functional, Natural killer cell
# [33] = Induction of activation of human CD56+ CD3- NK cells co-cultured with human K562 cells in 1:1 ratio and assessed as increase in TNF-alpha secretion at 10 uM measured by ELISA assay; assay type: functional, Natural killer cell
# [34] = Induction of activation of human CD56+ CD3- NK cells co-cultured with human K562 cells in 1:1 ratio and assessed as increase in IFN-gamma secretion at 2.5 uM measured by ELISA assay; assay type: functional, Natural killer cell
# [35] = Induction of activation of human CD56+ CD3- NK cells co-cultured with human K562 cells in 1:1 ratio and assessed as increase in IFN-gamma secretion at 0.625 uM measured by ELISA assay; assay type: functional, Natural killer cell
# [36] = Induction of activation of human CD56+ CD3- NK cells co-cultured with human K562 cells in 1:1 ratio and assessed as increase in TNF-alpha secretion at 2.5 uM measured by ELISA assay; assay type: functional, Natural killer cell
# [37] = Induction of activation of human CD56+ CD3- NK cells co-cultured with human K562 cells in 1:1 ratio and assessed as increase in TNF-alpha secretion at 0.625 uM measured by ELISA assay; assay type: functional, Natural killer cell
Compound,fold change (FC) [1],fold change (FC) [2],fold change (FC) [3],fold change (FC) [4],fold change (FC) [5],fold change (FC) [6],fold change (FC) [7],fold change (FC) [8],fold change (FC) [9],fold change (FC) [10],fold change (FC) [11],fold change (FC) [12],fold change (FC) [13],fold change (FC) [14],fold change (FC) [15],fold change (FC) [16],fold change (FC) [17],fold change (FC) [18],fold change (FC) [19],fold change (FC) [20],other results
C[C@H](c1cc2c(c(C(F)(F)F)c1)CN(c1cccc(C3(Cc4nncn4C)COC3)c1)C2=O)N1CC[C@H](F)C1,>=7.5,>=7.5,>=0.201,1.31,>1.601,1.401,>4,1.201,1.201,3.01,>1.601,1.401,1.201,>4,3.01,>4,2.01,2.01,1.51,2.01,fold change (FC) [21]: 1.51; fold change (FC) [22]: 1.51; fold change (FC) [23]: <=2; fold change (FC) [24]: 2.01; fold change (FC) [25]: 2.01; fold change (FC) [26]: >1.61; fold change (FC) [27]: >3.01; fold change (FC) [28]: >1.61; fold change (FC) [29]: >1.61; fold change (FC) [30]: >4.01; fold change (FC) [31]: 2.51; AUC (B cell): 1.01; fold change (FC) [32]: >=5; fold change (FC) [33]: >=5; fold change (FC) [34]: 2.01; fold change (FC) [35]: 2.01; fold change (FC) [36]: 2.01; fold change (FC) [37]: 2.01
C[C@H](Cc1nncn1C)c1cccc(N2Cc3c(cc(CN4CC(O)C4)cc3C(F)(F)F)C2=O)c1,>=7.5,>=7.5,>=0.201,1.31,1.201,<=1.2,3.01,<=1.2,<=1.2,<=2,1.201,<=1.2,<=1.2,<=2,<=2,1.51,<=1.5,<=1.5,<=1.5,<=1.5,fold change (FC) [21]: <=1.5; fold change (FC) [22]: <=1.5; fold change (FC) [23]: 2.01; fold change (FC) [24]: <=2; fold change (FC) [25]: <=2; fold change (FC) [26]: >1.61; fold change (FC) [27]: >3.01; fold change (FC) [28]: 1.41; fold change (FC) [29]: >1.61; fold change (FC) [30]: >4.01; fold change (FC) [31]: <=2.5; AUC (B cell): 0.5; fold change (FC) [32]: 2.01; fold change (FC) [33]: 2.01; fold change (FC) [34]: 1.01; fold change (FC) [35]: 2.01; fold change (FC) [36]: 2.01; fold change (FC) [37]: 1.01
Cc1cc(C(=O)Nc2cccc([C@@H](C)Cc3nncn3C)c2)nc(C2CC2)n1,2.51,1.01,0.051,1.01,1.401,1.401,>4,1.201,1.201,2.01,>1.601,1.201,<=1.2,>4,2.01,2.01,1.51,1.51,<=1.5,<=1.5,fold change (FC) [21]: <=1.5; fold change (FC) [22]: <=1.5; fold change (FC) [23]: 3.01; fold change (FC) [24]: <=2; fold change (FC) [25]: <=2; fold change (FC) [26]: <=1.4; fold change (FC) [27]: <=2.5; fold change (FC) [28]: <=1.4; fold change (FC) [29]: <=1.4; fold change (FC) [30]: <=2.5; fold change (FC) [31]: <=2.5; AUC (B cell): 1.01; fold change (FC) [32]: 2.01; fold change (FC) [33]: 1.01; fold change (FC) [34]: 1.01; fold change (FC) [35]: 1.01; fold change (FC) [36]: <=1; fold change (FC) [37]: <=1
Cc1cc(C(=O)Nc2cccc([C@H](C)Cc3nncn3C)c2)nc(C2CC2)n1,>=7.5,>=7.5,>=0.201,>=1.76,>1.601,<=1.2,>4,1.201,<=1.2,<=2,>1.601,1.401,<=1.2,>4,<=2,>4,>4,2.01,2.01,2.01,fold change (FC) [21]: 1.51; fold change (FC) [22]: 1.51; fold change (FC) [23]: 2.01; fold change (FC) [24]: 2.01; fold change (FC) [25]: <=2; fold change (FC) [26]: 1.41; fold change (FC) [27]: <=2.5; fold change (FC) [28]: >1.61; fold change (FC) [29]: >1.61; fold change (FC) [30]: <=2.5; fold change (FC) [31]: <=2.5; AUC (B cell): > 1.51; fold change (FC) [32]: 2.01; fold change (FC) [33]: 2.01; fold change (FC) [34]: 2.01; fold change (FC) [35]: 2.01; fold change (FC) [36]: 2.01; fold change (FC) [37]: 1.01
